This note sets out measurements from patent US20250152555A1, “Pharmaceutical Composition for Preventing or Treating Triple-Negative Breast Cancer” (Daewoong Pharmaceutical Co., Ltd., priority 2021, published 2025).

For assay [1], the system named is Hs578T (human triple negative breast cancer cell line). As to the kind of experiment: CellTiter-Glo Luminescent Cell Viability, combined administration of docetaxel (Experimental Example 3). The format is cell-based. (In general: In ATP-based viability assays light output follows the ATP content of the culture.)
Procedure: 10 μM of Fexuprazan and 1 μM of Doxorubicin were administered singly and in combination, respectively. As a comparative group, 10 μM of Vonoprazan was administered singly or in combination with Doxorubicin. At this time, 0.1% DMSO was used as a solvent for each composition. Further, 0.1% DMSO was used as a vehicle control. Each experimental group was repeated twice. Plates treated with the compound at respective concentrations were incubated in a 5% CO2 incubator at 37° C. for 48 hours. […] The reaction was performed at room temperature in a dark room for 10 minutes, and luminescence was measured using a Flexstation3 multi-mode microplate reader. The luciferase enzyme activity, representing the amount of ATP, was measured by a chemiluminescence method according to CellTiter-Glo® Luminescent Cell Viability instructions, and the inhibitory activity was calculated. […]
Hs578T (human triple negative breast cancer cell line) was incubated in a 96 well clear bottom plate and then stabilized for 24 hours. […] After incubating in a 5% CO2 incubator at 37° C. for 48 hours, the luciferase enzyme activity, representing the amount of ATP, was measured by a chemiluminescence method according to CellTiter-Glo® Luminescent Cell Viability instructions, and the inhibitory activity was calculated. The respective results were analyzed using Microsoft Excel, and significance was confirmed through an unpaired t test in Graphpad Prism software.
For assay [2], the system named is Hs578T (human triple-negative breast cancer cell line). As to the kind of experiment: CellTiter-Glo Luminescent Cell Viability, combined administration of Doxorubicin (Experimental Example 1). The format is cell-based. Conditions: for antitumor effect in combination with Doxorubicin compared to administration alone / synergistic effect with Doxorubicin: 10 μM with 1 μM Doxorubicin, Table 1 and FIG. 1; for viability at 10 µM: single agent 10.0 μM, no Doxorubicin. Here is the method: (§1) In order to confirm the anticancer efficacy when Fexuprazan and Doxorubicin were administered in combination, cell proliferation was measured for Hs578T (human triple-negative breast cancer cell line) by a CellTiter-Glo® Luminescent Cell Viability (Promega, Catalog #G7571) method. The above evaluation was performed by a method in which when the luciferase enzyme was activated by ATP leaked from living cells, it reacted with a luciferin substrate, and the enzyme activity at this time was measured to confirm the cell viability.
(§2) Specifically, 100 μL of cell culture medium (RPMI medium, 10% FBS, 1% P/S, 4.5 g/L D-Glucose, 2.383 g/L HEPES Buffer, L-Glutamine, 1.5 g/L Sodium Bicarbonate, 110 mg/L Sodium pyruvate) was used and each cancer cell line was prepared in a white clear-bottom 96-well microplate. 10 μM of Fexuprazan and 1 μM of Doxorubicin were administered singly and in combination, respectively. As a comparative group, 10 μM of Vonoprazan was administered singly or in combination with Doxorubicin. At this time, 0.1% DMSO was used as a solvent for each composition. Further, 0.1% DMSO was used as a vehicle control. Each experimental group was repeated twice. Plates treated with the compound at respective concentrations were incubated in a 5% CO2 incubator at 37° C. for 48 hours. 100 μL/well of the substrate aqueous solution containing luciferin was added to a white clear-bottom 96 well microplate to initiate the enzymatic reaction. The reaction was performed at room temperature in a dark room for 10 minutes, and luminescence was measured using a Flexstation3 multi-mode microplate reader. The luciferase enzyme activity, representing the amount of ATP, was measured by a chemiluminescence method according to CellTiter-Glo® Luminescent Cell Viability instructions, and the inhibitory activity was calculated. The results of each compound were analyzed using Microsoft Excel. Compound concentrations were converted into logarithmic values using GraphPad Prism software and expressed on the graph.

The subject of assay [3] is Hs578T cell line. As to the kind of experiment: CellTiter-Glo Luminescent Cell Viability, optimal molar ratio for combination use with Doxorubicin (Experimental Example 2). The format is cell-based, human. Here is the method:
as §1
as §2, with “Further, 0.1% DMSO was used as a vehicle control. Each experimental group was repeated twice. Plates treated with the compound at respective concentrations were incubated in a 5% CO2 incubator at 37° C. for 48 hours. 100 μL/well of the substrate aqueous solution containing luciferin was added to a white clear-bottom 96 well microplate to initiate the enzymatic reaction.” left out, “Compound concentrations were converted into logarithmic values using GraphPad Prism software and expressed on the graph.” left out
In order to confirm the optimal combination ratio of Fexuprazan to Doxorubicin, cell proliferation was measured using a CellTiter-Glo® Luminescent Cell Viability (Promega, Catalog #G7571) method in the same manner as in Experimental Example 1. […] The cells were incubated in a 5% CO2 incubator at 37° C. for 48 hours, the luciferase enzyme activity, representing the amount of ATP, was measured by a chemiluminescence method according to CellTiter-Glo® Luminescent Cell Viability instructions, and the inhibitory activity of the compound according to this purpose was calculated. […]

Where [4] appears, read: Homo sapiens, Hs-578T, Doxorubicin 1.0 μM alone, 48 hours, read-out: Relative cell viability (%).
[5] abbreviates: Homo sapiens, Hs-578T, 48 hours, read-out: Relative cell viability (%).

The structures appear in SMILES notation.

For `CC(=O)O[C@@]12CO[C@@H]1C[C@H](O)[C@@]1(C)C(=O)[C@H](O)C3=C(C)[C@@H](OC(=O)[C@H](O)[C@@H](NC(=O)OC(C)(C)C)c4ccccc4)C[C@@](O)([C@@H](OC(=O)c4ccccc4)[C@H]21)C3(C)C` [Docetaxel, docetaxel], in assay [1] (Homo sapiens, Hs-578T, Docetaxel 1.0 nM alone, 48 hours, read-out: Relative cell viability (%)), the viability at 0.001 µM was 88.3%. For the same molecule, the viability at 0.01 µM in assay [1] (Homo sapiens, Hs-578T, Docetaxel 10.0 nM alone, 48 hours, read-out: Relative cell viability (%)) was determined as 49.3%. The “synergistic effect on the antitumor effect relative to Esomeprazole” value in assay [1] (docetaxel 1 nM and 10 nM combined with 10 μM Fexuprazan, Table 3 and FIG. 4) is “synergistic effect”.

As to `COc1cccc2c1C(=O)c1c(O)c3c(c(O)c1C2=O)C[C@@](O)(C(=O)CO)C[C@@H]3O[C@H]1C[C@H](N)[C@H](O)[C@H](C)O1` [Doxorubicin], the viability at 1 µM turned out to be 70.6% in assay [2] (setting [4]) and 50% in assay [3] (setting [4]).

With `CNCc1cn(S(=O)(=O)c2cccc(F)c2)c(-c2ccc(F)cc2F)c1OC` [Fexuprazan, 1-(5-(2,4-difluorophenyl)-1-((3-fluorophenyl)sulfonyl)-4-methoxy-1H-pyrrol-3-yl)-N-methylmethanamine], the “antitumor effect in combination with Doxorubicin compared to administration alone / synergistic effect with Doxorubicin” value in assay [2] is on record as “superior antitumor effect”. Also, the viability at 10 µM in assay [2] (setting [5]) was 100%. Moreover, the “synergistic effect with Doxorubicin, compared to the combined effect of Esomeprazole” value in assay [3] (molar ratio of Doxorubicin and Fexuprazan 1:5 or more) is “synergistic effects”; in assay [3] (molar ratios of Doxorubicin and Fexuprazan 1:10 or more) it was “especially superior”.

`CNCc1cc(-c2ccccc2F)n(S(=O)(=O)c2cccnc2)c1` [Vonoprazan]: in assay [2], the “antitumor effect in combination with Doxorubicin compared to administration alone / synergistic effect with Doxorubicin” value is reported as “no synergistic effect”. Further, the viability at 10 µM in assay [2] (setting [5]) is 92.3%.

The viability is a per cent measure of how many cells are alive, often set against a control.
